The text below walks through data of publication PMC4657044, “Live detection and purification of cells based on the expression of a histone chaperone, HIRA, using a binding peptide” (Scientific Reports, 2015).

For data set [1], the system named is HSC-4 cells. Nature of the data set: FACS of fixed HSC-4 cells with and without saponin permeabilization. It counts as cell-based, human. As to conditions: fixed (4% PFA) HSC-4 cells, 10 μM FITC-labelled peptide, with or without 0.3% saponin, buffer with 1% FBS, 1 h at room temperature; FACS fluorescence. The method, then: (§1) TM2-FITC was used for FACS analyses with and without permeabilization of fixed HSC-4 cells using saponin. […] To check whether it can be used for live sorting, live HSC-4 cells were stained with the peptide and analyzed by FACS. […] The live uptake of TM2-FITC by HSC-4 monolayer cells was visualized under microscope immediately after washing off the staining solution (Fig. 2c).
(§2) FACS analysis was performed as reported previously. Monolayer cells were trypsinized and fixed using 4% PFA, and peptide labeled with FITC (10 μM) was added to the cells in presence or absence of 0.3% saponin in a buffer containing 1%FBS, and incubated for one hour at room temperature. For live sorting, the cells were resuspended in 75 μl of PBS containing the peptide for one hour. Cells were diluted with 200 μl of PBS and sorted immediately using FACS Aria II.

In data set [2] the test system is wild type and Hira-/- ES cells. The data set is described as follows: Live uptake by ES cells under the confocal microscope. Format: cell-based, mouse. As to conditions: live wild type and Hira-/- ES cells grown in confocal dishes, TM2-FITC; fluorescence microscopy.
Description: as §1
(a) The FACS profile of fixed HSC-4 cells stained with TM2-FITC. (b) Live cells were stained with the TM2-FITC as described under methods and analyzed in FACS Aria II. (c) HSC-4 cells were grown in confocal dishes and incubated with TM2-FITC diluted in PBS for 1 h. Prior to imaging the cells were briefly washed and imaged (d) ES cells were grown in confocal dishes and stained using TM2-FITC. Hoechst 33342 dye was used to visualize the nucleus. The scale bar represents 10 μm.

For data set [3], the target named is T1, HIRA (Homo sapiens, UniProt P54198).
T1 construct: We took oral cancer cell line HSC-4, which expresses HIRA; endogenous in cells; host or cells: HSC-4
The data set is described as follows: Immunofluorescence of fixed and permeabilized HSC-4 cells. It counts as cell-based. As to conditions: fixed (4% PFA) and permeabilized (0.3% Triton X-100) HSC-4 cells; overnight at 4 °C; confocal microscopy. The source says: (§3) One of the problems that could emerge in a peptide-based detection is its specificity. To confirm whether the peptide detects correct molecule, we performed a western blot using biotin-tagged peptide, a novel approach for showing specificity. TM2 was tagged with biotin and purified by size exclusion chromatography, and was used instead of primary antibody in western blot. The blot was developed with streptavidin-HRP and ECL to get a single band at 110 kDa, as observed in antibody-based detection (Fig. 1b). The peptide was tagged to FITC and was used for immunofluorescence in comparison with HIRA antibody. The staining pattern in fixed and permeabilized oral cancer cell line HSC-4 was similar in both TM2-FITC and HIRA antibody (Fig. 1c), confirming the specificity. To rule out nonspecific binding of peptide we selected HIRA-knock out cells. So, we analyzed the specificity using mouse W9.5 (wild type) and Hira^−/− W9.5 ES cells, reported earlier. Since we designed peptides using human sequence, and the cell line is of mouse origin we compared the sequence similarity of binding region of both HIRA and H2B across the two species. […] So we anticipated that the peptide will recognize mouse HIRA as well.
(§4) Monolayer cells seeded in micro slide chamber were fixed using 4% paraformadehyde (PFA), permeabilized with 0.3% Triton X-100/PBS (PBST) and blocked with 2% serum as described previously. […]

Data set [4] deals with wild type ES cells and Hira-/- ES cells. The data set is described as follows: Live sorting of a mixture of wild type and Hira-/- ES cells. It counts as cell-based, mouse. The source says:
(§5) Since TM2-FITC binds to its target in live cells without any permeabilizing agents, we sought the possibility of its use in live sorting. We tried to separate HIRA expressing cells from HIRA deficient cells using FACS. We took oral cancer cell line HSC-4, which expresses HIRA, and mixed with Hira^−/− ES cells in 2.5:1 ratio. […] These cells were sorted out as positive and negative populations with gates P2 and P3 and were allowed to grow for 5 days in 8-well chamber slide. The DIC images confirm that the positive population was HSC-4 keratinocytes and the negative population was ES cells (Fig. 3b). Again wild type ES cells and Hira^−/− ES cells were mixed in 1:1 ratio and sorted as mentioned before. […] These cells grown in slide chambers were stained with antibodies for HIRA and an epithelial marker, CD44. […] The cross contamination in P3 population for the mixture of null and wild type ES cells was <4%. Since 5 days of growth in ES culture medium might give a selection advantage for ES cells over the contaminating keratinocytes, another FACS was performed to check the false positivity and negativity. HSC-4 cells and Hira^−/− ES cells were stained alone or in mixture with the TM2-FITC and CD44-PE and analyzed by FACS. […] The false positivity that we observed in P4 population could be overcome by a stringent gating as we have done in Fig 3. To further ascertain the false positivity in sorting based on TM2-FITC, the mixture of two cell types were separated for HIRA a positivity as shown in Fig. 4d. The positive population was analyzed for possible cross contamination for ES cells as shown by CD44 negativity. […] Comparing the cost of peptide synthesis with antibody development, this method is more cost effective than conventional antibodies. In future, the strategy can be improved by modifications that increases the retention time of the peptide, to ensure more purity. We argue that this approach will have immense use in cell biology, developmental biology and clinical applications.
(§6) FACS analysis was performed as reported previously. […]

Data set [5] deals with HSC-4 cells and Hira-/- ES cells. The data set is described as follows: FACS of live HSC-4 / Hira-/- ES cell mixture dual stained with TM2-FITC and CD44-PE. It counts as cell-based.
Description: as §5
Figure 4 Specificity of TM2-FITC live sorting. (a) The FACS profiles of live HSC-4 cells and ES cells alone or in a mixture stained with TM2-FITC and CD44-PE. The two populations in P2 and P4 gate were selected for CD44 positivity. (b) Sorted cells were further analyzed for HIRA positivity (c) The dual stained cells were separated for both FITC and PE. The positivity of different populations is marked. (d) The mixture of two cell types were separated for HIRA positivity and the P2 population was further analyzed for CD44 positivity.
as §6

For data set [6] the test system is unchanged. The data set is described as follows: Live sorting of a mixture of HSC-4 cells and Hira-/- ES cells. It counts as cell-based. The source says: Since TM2-FITC binds to its target in live cells without any permeabilizing agents, we sought the possibility of its use in live sorting. We tried to separate HIRA expressing cells from HIRA deficient cells using FACS. We took oral cancer cell line HSC-4, which expresses HIRA, and mixed with Hira^−/− ES cells in 2.5:1 ratio. […] These cells were sorted out as positive and negative populations with gates P2 and P3 and were allowed to grow for 5 days in 8-well chamber slide. The DIC images confirm that the positive population was HSC-4 keratinocytes and the negative population was ES cells (Fig. 3b). Again wild type ES cells and Hira^−/− ES cells were mixed in 1:1 ratio and sorted as mentioned before. […] These cells grown in slide chambers were stained with antibodies for HIRA and an epithelial marker, CD44. […] The cross contamination in P3 population for the mixture of null and wild type ES cells was <4%. Since 5 days of growth in ES culture medium might give a selection advantage for ES cells over the contaminating keratinocytes, another FACS was performed to check the false positivity and negativity. HSC-4 cells and Hira^−/− ES cells were stained alone or in mixture with the TM2-FITC and CD44-PE and analyzed by FACS. […] The positive population was analyzed for possible cross contamination for ES cells as shown by CD44 negativity. […]

In data set [7] the target is T2, HIRA (Mus musculus, UniProt Q61666).
T2 construct: endogenous in cells; host or cells: mouse W9.5 ES cells (wild type)
The data set is described as follows: Immunofluorescence of fixed and permeabilized wild type and Hira-/- W9.5 ES cells. It counts as cell-based. Particulars: fixed and permeabilized mouse W9.5 wild type versus Hira-/- ES cells; confocal microscopy.
Description: as §3, §4

For data set [8], the system named is HSC-4 cells. Nature of the data set: FACS of live HSC-4 cells stained with the peptide. It counts as cell-based, human. The protocol:
as §1, §2

[9] abbreviates: mixture of live HSC-4 and Hira-/- ES cells, TM2-FITC and CD44-PE, Fig. 4b.

No end group written: not given here.

T1 sequence (P54198 whole entry): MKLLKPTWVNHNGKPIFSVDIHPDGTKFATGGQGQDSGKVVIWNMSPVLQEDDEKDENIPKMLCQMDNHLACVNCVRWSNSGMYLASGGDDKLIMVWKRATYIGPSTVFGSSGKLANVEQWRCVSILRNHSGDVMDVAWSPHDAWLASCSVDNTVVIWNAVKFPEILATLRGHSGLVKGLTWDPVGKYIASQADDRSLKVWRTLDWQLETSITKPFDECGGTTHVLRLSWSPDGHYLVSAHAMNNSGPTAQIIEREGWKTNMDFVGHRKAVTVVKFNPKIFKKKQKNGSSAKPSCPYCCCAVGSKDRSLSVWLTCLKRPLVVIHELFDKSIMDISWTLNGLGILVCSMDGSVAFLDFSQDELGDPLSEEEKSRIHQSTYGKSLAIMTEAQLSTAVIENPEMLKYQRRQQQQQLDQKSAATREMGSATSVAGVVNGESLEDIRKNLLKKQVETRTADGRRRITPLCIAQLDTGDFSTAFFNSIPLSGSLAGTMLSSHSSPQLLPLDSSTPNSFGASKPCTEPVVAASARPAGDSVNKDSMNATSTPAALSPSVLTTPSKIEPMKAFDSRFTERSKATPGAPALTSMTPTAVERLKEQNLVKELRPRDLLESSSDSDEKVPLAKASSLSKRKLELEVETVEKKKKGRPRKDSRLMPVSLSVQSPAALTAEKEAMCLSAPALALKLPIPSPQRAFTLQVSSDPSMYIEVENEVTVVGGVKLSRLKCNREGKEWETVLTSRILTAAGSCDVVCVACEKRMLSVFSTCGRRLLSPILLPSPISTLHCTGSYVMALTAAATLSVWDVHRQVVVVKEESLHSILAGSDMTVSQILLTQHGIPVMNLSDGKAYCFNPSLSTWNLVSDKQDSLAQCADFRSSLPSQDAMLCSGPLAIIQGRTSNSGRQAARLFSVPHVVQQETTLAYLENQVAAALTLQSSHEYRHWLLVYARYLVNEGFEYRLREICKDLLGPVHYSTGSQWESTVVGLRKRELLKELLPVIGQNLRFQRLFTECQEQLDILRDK
T2 sequence (Q61666 whole entry): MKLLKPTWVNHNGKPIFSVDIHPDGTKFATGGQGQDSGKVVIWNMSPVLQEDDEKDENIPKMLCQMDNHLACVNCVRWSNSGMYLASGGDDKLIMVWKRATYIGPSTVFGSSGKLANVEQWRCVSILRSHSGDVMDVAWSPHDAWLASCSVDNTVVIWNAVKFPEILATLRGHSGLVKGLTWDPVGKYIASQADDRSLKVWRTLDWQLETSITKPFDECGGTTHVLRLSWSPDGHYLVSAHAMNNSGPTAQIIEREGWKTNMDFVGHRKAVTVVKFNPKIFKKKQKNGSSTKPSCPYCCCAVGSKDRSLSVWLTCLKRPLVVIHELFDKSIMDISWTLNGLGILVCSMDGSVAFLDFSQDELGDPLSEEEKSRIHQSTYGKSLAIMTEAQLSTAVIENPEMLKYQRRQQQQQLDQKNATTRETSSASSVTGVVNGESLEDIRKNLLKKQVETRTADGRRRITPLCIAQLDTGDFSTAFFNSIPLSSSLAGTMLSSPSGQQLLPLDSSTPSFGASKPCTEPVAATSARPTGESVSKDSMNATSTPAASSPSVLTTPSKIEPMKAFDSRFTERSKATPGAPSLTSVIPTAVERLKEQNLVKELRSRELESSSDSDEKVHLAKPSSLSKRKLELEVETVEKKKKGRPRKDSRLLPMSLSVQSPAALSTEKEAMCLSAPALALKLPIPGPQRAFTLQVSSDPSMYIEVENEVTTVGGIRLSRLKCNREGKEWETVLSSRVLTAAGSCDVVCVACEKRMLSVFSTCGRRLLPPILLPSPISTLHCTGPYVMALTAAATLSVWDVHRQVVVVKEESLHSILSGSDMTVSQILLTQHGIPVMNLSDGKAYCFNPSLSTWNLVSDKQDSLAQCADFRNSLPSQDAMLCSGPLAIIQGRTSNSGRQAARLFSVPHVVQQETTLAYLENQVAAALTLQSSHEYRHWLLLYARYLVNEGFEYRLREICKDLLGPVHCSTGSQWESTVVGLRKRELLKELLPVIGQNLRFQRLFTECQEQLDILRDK

For the substance PKKGSKKAVTKAQKKDGA-NH2 [TM2], in the data set with HSC-4 cells [1], the “cell permeability / internalization” value is “cell permeable”.

Take “TM2-FITC: TM2 peptide tagged to FITC, used for immunofluorescence, FACS and live sorting (PKKGSKKAVTKAQKKDGA-NH2; also: FITC, site not given here)”: the “cell permeability / internalization” value in the data set on HSC-4 cells [1] is “internalized without permeabilization”. The “live uptake pattern in ES cells” value in data set [2] is on record as “limited to the wild type ES cells”. Besides, in the data set with HIRA [3], the “staining pattern compared with HIRA antibody” value is given as “similar”. Moreover, the “viability of sorted ES cells” value in data set [4] (cells sorted live with TM2-FITC, grown 5 days in 8-well chamber slide, DIC images) was “viable and formed colonies in 5 days”. Besides, in data set [4] (live wild type ES and Hira-/- ES cells mixed 1:1 (1x10^5 / 1x10^5), expected 50%, FACS), the “observed ratio of positivity (gate P2)” value stood at 49.6%. Besides, the “cross contamination in sorted P3 (negative) population” value in data set [4] (mixture of null and wild type ES cells, sorted cells grown 5 days, stained with HIRA antibody) was less than 4%. The “false positive ratio in dual staining” value in data set [5] (dual stained cells separated for both FITC and PE, Fig. 4c) turned out to be 0.6%. In data set [5] (setting [9]), the “HIRA positivity of CD44+ population (P2)” value came to 82% and the “false HIRA positivity of Hira-/- ES cells (CD44 negative, P4)” value was determined as 2.7%. Further, the “false positive ratio (CD44 negative cells in the HIRA positive population)” value in data set [5] (mixture separated for HIRA positivity, P2 population analysed for CD44, Fig. 4d) is reported as 0.9%. Moreover, in data set [6] (live HSC-4 and Hira-/- ES cells mixed 2.5:1 (2.5x10^5 / 1x10^5), expected 71.4%, FACS), the “HIRA positive cells observed (gate P2)” value is 65.7%. For the same substance, the “contamination of sorted P3 (negative) population by CD44+HIRA+ cells” value in data set [6] (sorted cells grown 5 days in 8-well chamber slide, stained with HIRA and CD44 antibodies) is less than 1%. For the same substance, the “staining of HIRA-/- ES cells (specificity)” value with HIRA [7] was “absence of staining”. The “signal after washing with peptide free solution” value in the data set on HSC-4 cells [8] (live HSC-4 cells stained with the peptide, FACS) was “loss of the signal”. Besides, the “cells positive for HIRA” value in the data set on HSC-4 cells [8] (live HSC-4 cells, no permeabilization, peptide in 75 μl PBS for 1 h, diluted with 200 μl PBS, FACS Aria II) was found to be 85%.
